Reference: patent US11292792B2, “Tricyclic CRBN ligands and uses thereof” (Kymera Therapeutics, Inc., priority 2018, dated 2022)
pIC50: −log10 of the molar value. Like-named read-outs stand apart in the source and are kept apart here.

Molecular target: His-tagged CRBN-DDB1 complex (Homo sapiens (Human), UniProt Q96SW2)
Assay: Time-resolved fluorescence resonance energy transfer (TR-FRET) assay, displacement of Cy5-labeled thalidomide
Assay type: binding
Experimental: Equal volumes of His-tagged CRBN-DDB1 complex (56 nM) was mixed with Eu-cryptate labeled Anti-6HIS-monoclonal antibody (50× dilution from the commercial stock solution, Vender: Cisbio, Cat. #61HI2KLA) in a final buffer containing 20 mM HEPES pH 7.0, 150 mM NaCl, 0.005% Tween-20. […] The mixture were incubated at room temperature for 1 hour. FRET signals were measured on an EnVision plate reader (Perkin Elmer) by exciting at 340 nm and recording emission at both 615 nm as no FRET control and 665 nm as the FRET signals with a 60 microsecond delay. FRET efficiency was calculated as the ratio of fluorescent signals at […]. Quantitative loss of FRET efficiency as a function of compound concentrations was fitted by a four-parameter Logistic Function using GraphPad Prism 7.0 and the IC50 values were reported for each compound.
The compound numbers correspond to the compound numbers in Table 1.

Chain of His-tagged CRBN-DDB1 complex (Q96SW2 whole entry): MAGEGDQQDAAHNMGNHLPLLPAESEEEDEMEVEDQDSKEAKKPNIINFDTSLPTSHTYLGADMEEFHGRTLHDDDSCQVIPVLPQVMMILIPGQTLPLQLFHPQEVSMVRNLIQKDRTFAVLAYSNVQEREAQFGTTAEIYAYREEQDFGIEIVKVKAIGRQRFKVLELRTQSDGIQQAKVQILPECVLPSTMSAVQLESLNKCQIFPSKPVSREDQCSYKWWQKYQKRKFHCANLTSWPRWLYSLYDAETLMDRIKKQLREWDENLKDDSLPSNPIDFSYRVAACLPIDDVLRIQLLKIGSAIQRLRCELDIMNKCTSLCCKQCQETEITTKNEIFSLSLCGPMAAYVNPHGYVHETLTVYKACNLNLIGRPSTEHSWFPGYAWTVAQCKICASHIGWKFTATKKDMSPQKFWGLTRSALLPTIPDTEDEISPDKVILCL
Chain of His-tagged CRBN-DDB1 complex (Q16531 whole entry partner): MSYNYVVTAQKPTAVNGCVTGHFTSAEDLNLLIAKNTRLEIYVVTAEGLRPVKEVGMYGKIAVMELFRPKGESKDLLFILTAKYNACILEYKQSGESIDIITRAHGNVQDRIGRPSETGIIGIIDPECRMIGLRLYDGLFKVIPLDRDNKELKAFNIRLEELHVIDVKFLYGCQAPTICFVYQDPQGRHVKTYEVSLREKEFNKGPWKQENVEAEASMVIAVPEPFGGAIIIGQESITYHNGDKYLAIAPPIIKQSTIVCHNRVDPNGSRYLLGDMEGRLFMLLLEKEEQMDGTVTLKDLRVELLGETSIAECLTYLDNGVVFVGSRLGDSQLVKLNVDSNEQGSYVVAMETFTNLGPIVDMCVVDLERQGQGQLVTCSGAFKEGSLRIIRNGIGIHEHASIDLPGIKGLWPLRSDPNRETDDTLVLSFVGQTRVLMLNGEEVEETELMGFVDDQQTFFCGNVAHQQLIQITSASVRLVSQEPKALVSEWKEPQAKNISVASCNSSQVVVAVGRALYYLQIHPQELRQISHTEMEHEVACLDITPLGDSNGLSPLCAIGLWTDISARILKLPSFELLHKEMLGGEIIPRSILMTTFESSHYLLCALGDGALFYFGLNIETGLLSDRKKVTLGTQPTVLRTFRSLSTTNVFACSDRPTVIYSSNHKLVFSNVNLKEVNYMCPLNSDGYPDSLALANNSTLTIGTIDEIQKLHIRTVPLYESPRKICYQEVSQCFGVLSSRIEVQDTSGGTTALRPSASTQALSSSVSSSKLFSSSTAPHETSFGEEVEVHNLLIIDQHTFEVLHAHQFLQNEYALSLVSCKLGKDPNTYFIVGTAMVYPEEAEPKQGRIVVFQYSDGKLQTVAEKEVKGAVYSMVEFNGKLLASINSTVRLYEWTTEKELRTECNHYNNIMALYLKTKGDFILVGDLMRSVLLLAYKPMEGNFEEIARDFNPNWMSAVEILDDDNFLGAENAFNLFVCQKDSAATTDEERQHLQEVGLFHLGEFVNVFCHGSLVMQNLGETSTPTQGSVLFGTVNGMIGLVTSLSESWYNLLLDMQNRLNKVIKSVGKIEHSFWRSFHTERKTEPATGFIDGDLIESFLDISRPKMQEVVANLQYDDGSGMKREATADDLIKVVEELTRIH

Row | Structure (SMILES) | pIC50 (read-out: CRBN HTRF IC50) | pIC50
1 | O=C1CCC(n2c3cccc(C#CCOCCOCCOCc4ccccc4)c3c3cccnc32)C(=O)N1 (stereo not shown) [I-52] | > 5.00 | –
2 | COc1ccc2c3ccccc3n(C3CCC(=O)NC3=O)c2n1 (stereo not shown) [I-82] | 4.52 to 5.00 | –
3 | Nc1ccc2c(c1)c1cccnc1n2C1CCC(=O)NC1=O (stereo not shown) [I-5, 3-(6-Amino-9H-pyrido[2,3-b]indol-9-yl)piperidine-2,6-dione] | > 5.00 | –
4 | O=C1CCC(n2c3ccccc3c3ccncc32)C(=O)N1 (stereo not shown) [I-42] | < 4.00 | –
5 | N#Cc1ccc2c(c1)c1cccnc1n2C1CCC(=O)NC1=O (stereo not shown) [I-32] | 4.52 to 5.00 | –
6 | N#Cc1ccnc2c1c1ccccc1n2C1CCC(=O)NC1=O (stereo not shown) [I-76, 9-(2,6-dioxopiperidin-3-yl)-9H-pyrido[2,3-b]indole-4-carbonitrile] | > 5.00 | –
7 | CC(C)(C)OC(=O)NCCOCCOCCNc1ccc2c(c1)c1cccnc1n2C1CCC(=O)NC1=O (stereo not shown) [I-35, tert-butyl (2-(2-(2-((9-(2,6-dioxopiperidin-3-yl)-9H-pyrido[2,3-b]indol-6-yl)amino)ethoxy)ethoxy)ethyl)carbamate] | > 5.00 | –
8 | NCc1ccc2c3ccccc3n(C3CCC(=O)NC3=O)c2n1 (stereo not shown) [I-91, 3-(2-(aminomethyl)-9H-pyrido[2,3-b]indol-9-yl)piperidine-2,6-dione] | 4.00 to 4.52 | –
9 | O=C1CCC(n2c3ccccc3c3ccc(O)nc32)C(=O)N1 (stereo not shown) [I-83, 3-(2-hydroxy-9H-pyrido[2,3-b]indol-9-yl)piperidine-2,6-dione] | > 5.00 | –
10 | O=C1CCC(n2c3ccccc3c3cc(CCCOCCOCCO)cnc32)C(=O)N1 (stereo not shown) [I-54, 3-(3-(3-(2-(2-hydroxyethoxy)ethoxy)propyl)-9H-pyrido[2,3-b]indol-9-yl)piperidine-2,6-dione] | 4.52 to 5.00 | –
11 | O=C1CCC(n2c3ccccc3c3scnc32)C(=O)N1 (stereo not shown) [I-66] | 4.52 to 5.00 | –
12 | CC(C)(C)OC(=O)NC1CCN(CCc2ccc3c(c2)c2cccnc2n3C2CCC(=O)NC2=O)CC1 (stereo not shown) [I-71, tert-butyl (1-(2-(9-(2,6-dioxopiperidin-3-yl)-9H-pyrido[2,3-b]indol-6-yl)ethyl)piperidin-4-yl)carbamate] | > 5.00 | –
13 | O=C1CCC(n2c3ccccc3c3ccccc32)C(=O)N1 (stereo not shown) [I-1, 3-(9H-Carbazol-9-yl)piperidine-2,6-dione] | 4.52 to 5.00 | –
14 | O=C1CCC(n2c3ccccc3c3cccnc32)C(=O)N1 (stereo not shown) [I-2, 3-(9H-pyrido[2,3-b]indol-9-yl)piperidine-2,6-dione] | > 5.00 | –
15 | CCOC(=O)Nc1ccc2c(c1)c1cccnc1n2C1CCC(=O)NC1=O (stereo not shown) [I-29, ethyl (9-(2,6-dioxopiperidin-3-yl)-9H-pyrido[2,3-b]indol-6-yl)carbamate] | 4.52 to 5.00 | –
16 | O=C1CCC(n2c3ccccc3c3cnccc32)C(=O)N1 (stereo not shown) [I-43] | 4.00 to 4.52 | –
17 | O=C1CCC(n2c3ccccc3n3ccnc23)C(=O)N1 (stereo not shown) [I-99] | 4.00 to 4.52 | –
18 | CC(C)(C)OC(=O)NCCOCCNC(=O)NCc1ccc2c(c1)c1cccnc1n2C1CCC(=O)NC1=O (stereo not shown) [I-37, tert-butyl (2-(2-(3-((9-(2,6-dioxopiperidin-3-yl)-9H-pyrido[2,3-b]indol-6-yl)methyl)ureido)ethoxy)ethyl)carbamate] | 4.52 to 5.00 | –
19 | CC(C)(C)OC(=O)NCCOCCOCCCc1cccc2c1c1cccnc1n2C1CCC(=O)NC1=O (stereo not shown) [I-60] | > 5.00 | –
20 | O=C1CCC(n2c3ccc(C#CCOCCOCCOCc4ccccc4)cc3c3cccnc32)C(=O)N1 (stereo not shown) [I-47] | > 5.00 | –
21 | O=C1CCC(n2c3cccc(F)c3c3cccnc32)C(=O)N1 (stereo not shown) [I-100] | > 5.00 | –

Row | Structure (SMILES) | pIC50 (read-out: CRBN HTRF IC50) | pIC50
22 | NCCOCCOCCCc1cnc2c(c1)c1ccccc1n2C1CCC(=O)NC1=O (stereo not shown) [I-59, 3-(3-(3-(2-(2-aminoethoxy)ethoxy)propyl)-9H-pyrido[2,3-b]indol-9-yl)piperidine-2,6-dione] | > 5.00 | –
23 | O=C1CCC(n2c3c(c4cccnc42)CN(C(=O)CCCCCCCCO)CC3)C(=O)N1 (stereo not shown) [I-68, 3-(6-(9-hydroxynonanoyl)-5,6,7,8-tetrahydro-9H-pyrrolo[2,3-b:4,5-c′]dipyridin-9-yl)piperidine-2,6-dione] | 4.00 to 4.52 | –
24 | N#Cc1ccc2c3ccccc3n(C3CCC(=O)NC3=O)c2n1 (stereo not shown) [I-81, 9-(2,6-dioxopiperidin-3-yl)-9H-pyrido[2,3-b]indole-2-carbonitrile] | 4.52 to 5.00 | –
25 | O=C1CCC(n2c3ccccc3c3ccc(F)nc32)C(=O)N1 (stereo not shown) [I-84] | > 5.00 | –
26 | O=C1CCC(n2c3ccc(Br)cc3c3ccsc32)C(=O)N1 (stereo not shown) [I-88] | > 5.00 | –
27 | O=C1CCC(n2c3cc(CCCOCCOCCO)ccc3c3cccnc32)C(=O)N1 (stereo not shown) [I-53] | 4.52 to 5.00 | –
28 | O=C1CCC(n2c3ccccc3c3ccc(Cl)nc32)C(=O)N1 (stereo not shown) [I-75] | > 5.00 | –
29 | CC(C)(C)OC(=O)NCCOCCOCCCc1ccc2c(c1)c1cccnc1n2C1CCC(=O)NC1=O (stereo not shown) [I-62] | > 5.00 | –
30 | O=C1CCC(n2c3ccccc3c3c(Br)csc32)C(=O)N1 (stereo not shown) [I-89, 3-(3-bromo-8H-thieno[2,3-b]indol-8-yl)piperidine-2,6-dione] | > 5.00 | –
31 | O=C1CCC(n2c3ccccc3c3c(CCCOCCOCCO)ccnc32)C(=O)N1 (stereo not shown) [I-48] | > 5.00 | –
32 | O=C1CCC(N2C(=O)CN=C(c3ccccc3)c3ccccc32)C(=O)N1 (stereo not shown) [I-41] | – | 4.00 to 4.52
33 | O=C1CCC(n2c3ccccc3c3c(C#CCOCCOCCOCc4ccccc4)ccnc32)C(=O)N1 (stereo not shown) [I-49] | > 5.00 | –
34 | CN(CCCOCCCc1ccc2c(c1)c1cccnc1n2C1CCC(=O)NC1=O)C(=O)OC(C)(C)C (stereo not shown) [I-44] | > 5.00 | –
35 | O=C1CCC(n2c3ccccc3c3ccsc32)C(=O)N1 (stereo not shown) [I-72] | > 5.00 | –
36 | CNc1ccc2c3ccccc3n(C3CCC(=O)NC3=O)c2n1 (stereo not shown) [I-79, 3-(2-(methylamino)-9H-pyrido[2,3-b]indol-9-yl)piperidine-2,6-dione] | > 5.00 | –
37 | CC(C)(C)OC(=O)NCCOCCOCCCc1ccc2c3ccccc3n(C3CCC(=O)NC3=O)c2n1 (stereo not shown) [I-73] | 4.52 to 5.00 | –
38 | O=C1CCC(n2c3cc(Cl)ccc3c3cccnc32)C(=O)N1 (stereo not shown) [I-106, 3-(7-chloro-9H-pyrido[2,3-b]indol-9-yl)piperidine-2,6-dione] | 4.52 to 5.00 | –
39 | O=C1CCC(n2c3ccccc3c3cncnc32)C(=O)N1 (stereo not shown) [I-67] | 4.52 to 5.00 | –
40 | O=C1CCC(n2c3ccc(Br)cc3c3cccnc32)C(=O)N1 (stereo not shown) [I-26, 3-(6-Bromo-9H-pyrido[2,3-b]indol-9-yl)piperidine-2,6-dione] | > 5.00 | –
41 | O=C1CCC(n2ccn3c4ccccc4nc23)C(=O)N1 (stereo not shown) [I-94] | 4.00 to 4.52 | –
42 | O=C1CCC(n2c3ccccc3c3c(Br)ccnc32)C(=O)N1 (stereo not shown) [I-31] | > 5.00 | –

Row | Structure (SMILES) | pIC50 (read-out: CRBN HTRF IC50) | pIC50
43 | CC(=O)Nc1ccc2c(c1)c1cccnc1n2C1CCC(=O)NC1=O (stereo not shown) [I-8, N-(9-(2,6-Dioxopiperidin-3-yl)-9H-pyrido[2,3-b]indol-6-yl)acetamide] | > 5.00 | –
44 | COc1nccc2c3ccccc3n(C3CCC(=O)NC3=O)c12 (stereo not shown) [I-65] | 4.00 to 4.52 | –
45 | O=C1CCC(n2c3cc(F)ccc3c3cccnc32)C(=O)N1 (stereo not shown) [I-101] | > 5.00 | –
46 | O=C1CCC(n2c3ccccc3c3c(Cl)csc32)C(=O)N1 (stereo not shown) [I-93, 3-(3-chloro-8H-thieno[2,3-b]indol-8-yl)piperidine-2,6-dione] | > 5.00 | –
47 | CC(C)(C)OC(=O)NCCOCCOCC#Cc1ccc2c(c1)c1cccnc1n2C1CCC(=O)NC1=O (stereo not shown) [I-63] | > 5.00 | –
48 | O=C1CCC(n2c3cccc(Br)c3c3cccnc32)C(=O)N1 (stereo not shown) [I-30] | > 5.00 | –
49 | CC(C)(C)OC(=O)NCCOCCOC(=O)NCc1ccc2c(c1)c1cccnc1n2C1CCC(=O)NC1=O (stereo not shown) [I-38, 2-(2-((tert-butoxycarbonyl)amino)ethoxy)ethyl ((9-(2,6-dioxopiperidin-3-yl)-9H-pyrido[2,3-b]indol-6-yl)methyl)carbamate] | > 5.00 | –
50 | O=C1CCC(n2c3cccc(Br)c3c3ccsc32)C(=O)N1 (stereo not shown) [I-103, 3-(4-bromo-8H-thieno[2,3-b]indol-8-yl)piperidine-2,6-dione] | > 5.00 | –
51 | Nc1ccc2c3ccccc3n(C3CCC(=O)NC3=O)c2n1 (stereo not shown) [I-78] | > 5.00 | –
52 | O=C1CCC(n2c3c(c4cccnc42)CN(Cc2ccccc2)CC3)C(=O)N1 (stereo not shown) [I-55, 3-(6-benzyl-7,8-dihydro-5H-pyrrolo[2,3-b:4,5-c′]dipyridin-9(6H)-yl)piperidine-2,6-dione] | 4.00 to 4.52 | –
53 | CC(=O)Nc1ccc2c3ccccc3n(C3CCC(=O)NC3=O)c2n1 (stereo not shown) [I-90, N-(9-(2,6-dioxopiperidin-3-yl)-9H-pyrido[2,3-b]indol-2-yl)acetamide] | 4.52 to 5.00 | –
54 | CNc1ccc2c(c1)c1cccnc1n2C1CCC(=O)NC1=O (stereo not shown) [I-27, 3-(6-(methylamino)-9H-pyrido[2,3-b]indol-9-yl)piperidine-2,6-dione] | > 5.00 | –
55 | Cc1ccnc2c1c1ccccc1n2C1CCC(=O)NC1=O (stereo not shown) [I-77, 3-(4-methyl-9H-pyrido[2,3-b]indol-9-yl)piperidine-2,6-dione] | > 5.00 | –
56 | O=C1CCC(n2c3cc(Br)ccc3c3cccnc32)C(=O)N1 (stereo not shown) [I-102, 3-3-(7-Bromopyrido[2,3-b]indol-9-yl)piperidine-2,6-dione] | 4.52 to 5.00 | –
57 | CC(C)(C)OC(=O)N1CCN(CCc2ccc3c(c2)c2cccnc2n3C2CCC(=O)NC2=O)CC1 (stereo not shown) [I-64, tert-butyl 4-(2-(9-(2,6-dioxopiperidin-3-yl)-9H-pyrido[2,3-b]indol-6-yl)ethyl)piperazine-1-carboxylate] | > 5.00 | –
58 | O=C1CCC(n2c3cnccc3c3cccnc32)C(=O)N1 (stereo not shown) [I-69, 3-(9H-pyrrolo[2,3-b:5,4-c′]dipyridin-9-yl)piperidine-2,6-dione] | < 4.00 | –
59 | O=C1CCC(n2c3ccccc3c3ccnc(O)c32)C(=O)N1 (stereo not shown) [I-105] | 4.52 to 5.00 | –
60 | CN(CCCOCC#Cc1ccc2c(c1)c1cccnc1n2C1CCC(=O)NC1=O)C(=O)OC(C)(C)C (stereo not shown) [I-45] | 4.52 to 5.00 | –
61 | CC(C)(C)OC(=O)NCCOCCOCC#Cc1cccc2c1c1cccnc1n2C1CCC(=O)NC1=O (stereo not shown) [I-61] | > 5.00 | –
